Where two headings read alike, the source gives them in different places. One block for each molecule: values may come before it.
Tests used:
[1] = system: B78-D14 m.11,944^60% cells; test: Cell sensitivity to inhibitors (IC50 from final confluency, IncuCyte); type: cell-based, mouse; settings: for IC50: Mus musculus
Method: (§1) Cells were plated in a 96-well plate at 500 cells/well in 200 μL of cell culture media. Plates were incubated overnight at 37° C. and 5% CO2. The following day, media was replaced with 0-100 mM 2-DG in quadruplicate. Plates were imaged once every 4 hrs on the IncuCyte Zoom (Essen Bioscience) for 5 days. Final confluency measurements were calculated using the system algorithm and the IC50 was determined by GraphPad Prism.

[2] = system: B78-D14 m.12,436^80% cells; test: as above; type: cell-based, mouse; settings: for IC50: Mus musculus
Method: as §1

[3] = system: B78-D14 m.12,436^60% cells; test: as above; type: cell-based, mouse; settings: for IC50: Mus musculus
Method: as §1

B78-D14 wild-type cells = test: as above; type: cell-based; settings: Mus musculus
Method: as §1

metastatic melanoma [4] = settings: of the 15 responders; cited from earlier work
metastatic melanoma [5] = test: Response of metastatic melanoma patient cohort (Riaz et al.) to nivolumab, stratified by tumour mtDNA mutation status; type: in vivo, human
Source text: Mutation calls and calculated heteroplasmy were used to assign patients to mtDNA wildtype, <50% VAF or >50% VAF groups.

Hcmel12 tumours = test: Manipulation of tumour-associated neutrophils with G-CSF or anti-Ly6G, with or without anti-PD1, in Hcmel12 tumours; type: in vivo, mouse
Method: To determine if neutrophil depletions were necessary for observed sensitivity to ICB, the inventors chose to manipulate the proportion of tumour-associated neutrophils using G-CSF and anti-Ly6G treatments. Hcmel12 wild-type, m.12,436^83% and cytoLbNOX cells were allografted into C57BL/6 mice and were put on G-CSF or anti-Ly6G treatment with or without antiPD1 (FIG. 43A).
For immunotherapy experiments, mice were put on a dosing regimen of 200 μg of anti-PD1 given intraperitoneally twice a week. The first dose was given 7 days post-injection and all mice were sacrificed at 21 or 13 days post-injection for B78 or HcMel12 cells respectively. Either 5 μg mouse recombinant G-CSF (Stemcell) or 100 μg anti-mouse Ly6G—clone 1A8 (2B Scientific) was given intraperitoneally every 2 days post-engraftment to mice for neutrophil depletion experiments.

[6] = m.12,436^80% cells, read-out: IC50
[7] = m.12,436^60% cells, read-out: IC50
[8] = wild-type cells, read-out: IC50
[9] = printed as mt.11944^80%, read-out: IC50

- IC50 ([1]; m.11,944^60% cells, read-out: IC50): 1040 µM
- IC50 [2, 6]: 460 µM
- IC50 [3, 7]: 810 µM
- IC50 (B78-D14 wild-type cells; [8]): 1620 µM
Molecule: O=CC[C@@H](O)[C@H](O)[C@H](O)CO [2-DG, 2-deoxyglucose]
- sensitivity compared with wild-type cells ([1]; m.11,944^60% cells): more sensitive
- sensitivity compared with wild-type cells ([2]; m.12,436^80% cells): further enhanced
- sensitivity compared with wild-type cells ([3]; m.12,436^60% cells): more sensitive

- IC50 [1, 9]: 22900 ± 700 µM
- IC50 [2, 6]: 5890 ± 710 µM
- IC50 [3, 7]: 16600 ± 2430 µM
- IC50 (B78-D14 wild-type cells; [8]): 26300 ± 1490 µM
Molecule: CN(C)C(=N)N=C(N)N [metformin]
- sensitivity compared with wild-type cells ([1]; m.11,944^60% cells): enhanced sensitivity
- sensitivity compared with wild-type cells ([2]; m.12,436^80% cells): enhanced sensitivity
- sensitivity compared with wild-type cells ([3]; m.12,436^60% cells): enhanced sensitivity

Molecule: CC[C@H]1/C=C/C=C/C[C@@H](C)[C@H](O)[C@@](C)(O)C(=O)[C@@H](C)[C@H](O)[C@@H](C)C(=O)[C@@H](C)[C@H](O)[C@@H](C)/C=C/C(=O)O[C@@H]2[C@H](C)[C@H](CC1)O[C@]1(CC[C@H](C)[C@H](C[C@@H](C)O)O1)[C@H]2C [oligomycin]
- IC50 [1, 9]: 13.5 ± 3.32 µM
- sensitivity compared with wild-type cells ([1]; m.11,944^60% cells): None of the mutants demonstrated differential sensitivity
- IC50 ([2]; mt.12436^80% cells, read-out: IC50): 7.75 ± 0.56 µM
- sensitivity compared with wild-type cells ([2]; m.12,436^80% cells): None of the mutants demonstrated differential sensitivity
- IC50 ([3]; mt.12436^60% cells, read-out: IC50): 13.5 ± 3.32 µM
- sensitivity compared with wild-type cells ([3]; m.12,436^60% cells): None of the mutants demonstrated differential sensitivity
- IC50 (B78-D14 wild-type cells; [8]): 13.8 ± 3.8 µM

Molecule: C=C(C)[C@H]1Cc2c(ccc3c2O[C@@H]2COc4cc(OC)c(OC)cc4[C@@H]2C3=O)O1 [rotenone]
- IC50 [1]: 0.205 ± 0.033 µM
- sensitivity compared with wild-type cells ([1]; m.11,944^60% cells): not differentially sensitive
- IC50 [2]: 0.493 ± 0.108 µM
- sensitivity compared with wild-type cells ([2]; m.12,436^80% cells): resistance compared to wild type
- IC50 [3]: 0.235 ± 0.035 µM
- sensitivity compared with wild-type cells ([3]; m.12,436^60% cells): not differentially sensitive
- IC50 (B78-D14 wild-type cells): 0.236 ± 0.026 µM

Molecule: nivolumab
- complete responses (metastatic melanoma [4]): 3
- partial responses (metastatic melanoma [4]): 12
- tumours responding (metastatic melanoma [5]; <50% VAF tumours): 17%
- tumours responding (metastatic melanoma [5]; >50% VAF tumours): 40%
- likelihood to respond, >50% VAF tumours versus mtDNA wild-type or low VAF tumours (metastatic melanoma [5]; Example 1 analysis): 2.5 ×
- rate of response of >50% VAF cancers versus wild-type or <50% VAF cancer (metastatic melanoma [5]; Example 2 analysis): 2.6 fold
- cohort response rate, partial or complete responses (metastatic melanoma [5]; mtDNA mutation status-naive cohort, 70 patients): 22%
- complete responders categorised as >50% VAF (metastatic melanoma [5]; out of the 3 complete responders): 2

B1: G-CSF: mouse recombinant G-CSF (Stemcell) (protein, UniProt P09920 31-208, looked up)
Granulocyte …: VPLVTVSALPPSLPLPRSFLLKSLEQVRKIQASGSVLLEQLCATYKLCHPEELVLLGHSLGIPKASLSGCSSQALQQTQCLSQLHSGLCLYQGLLQALSGISPALAPTLDLLQLDVANFATTIWQQMENLGVAPTVQPTQSAMPAFTSAFQRRAGGVLAISYLQGFLETARLALHHLA
- tumour-associated neutrophil proportions (Hcmel12 tumours; across genotypes): increases
- sensitivity of tumours to anti-PD1 (Hcmel12 tumours; m.12,436^83% and cytoLbNOX tumours, G-CSF plus anti-PD1): abolished sensitivity
- tumour weight versus untreated tumours at the same end-point (Hcmel12 tumours; without anti-PD1): did not affect tumour weight

— patent US20260263567A1, “TUMOUR SENSITISATION TO CHECKPOINT INHIBITORS WITH REDOX STATUS MODIFIER” (CANCER RESEARCH TECHNOLOGY LIMITED, priority 2022, published 2026)
